Laboratory results as given in patent US5458876A, “Control of microbial growth with lantibiotic/lysozyme formulations” (priority 1990, dated 1995).
Ends that are not written are not given here.

Assays:
L. monocytogenes Scott A = assay: Survival of cells in citric acid buffer with subtilin and/or lysozyme; assay type: cell-based, Listeria monocytogenes; settings: for Surviving Cells After 1 Hour at 25° C.: 10 mM citric acid buffer pH 5.5, untreated 7.5; for Surviving Cells After 1 Hour at 25° C. / log10 reduction: subtilin 100 μ/ml and/or lysozyme 500 ppm; for log10 reduction / effect on the L. monocytogenes cells: 1 hour at 25° C., pH 5.5; for effect on the L. monocytogenes cells: alone, subtilin 100 μ/ml or lysozyme 500 ppm
Procedure: A culture of L. monocytogenes Scott A was grown overnight in BHI broth and diluted 1:100 in 10 mM citric acid buffer (pH 5.5). This preparation, 100 μl, was added to 900 μl of citric acid buffer containing subtilin, lysozyme or both. The subtilin used in this experiment was prepared by the pure culture fermentation of Bacillus subtillus ATCC 6633 as described by Banerjee and Hansen in J. Biol. Chem. 1988 263 (19): 9508-9514.

[1] = tested on: S. typhimurium (ATCC 14028); assay: Survival of cells in citric acid buffer with nisin and/or lysozyme; assay type: cell-based, Salmonella typhimurium
Procedure: A culture of S. typhimurium (ATCC 14028) was grown overnight on nutrient broth, diluted in 10 mM citric acid buffer (pH 3.5) and added to citric acid buffer containing nisin, lysozyme or a combination thereof.

[2] = tested on: Listeria monocytogenes, Scott A; assay: Lysis of washed cells at various pH levels (loss of absorbance at 540 nm); assay type: cell-based; settings: 100 IU/ml nisin alone or 10 μg/ml lysozyme alone; 37°
Procedure: A culture of Listeria monocytogenes, Scott A, was grown overnight in BHI broth and harvested by centrifugation. The harvested cells were washed with 0.067M Potassium phosphate buffer (pH 6.6) and resuspended in 0.067M potassium phosphate buffer at various pH levels to a final absorbance of about 1.0 at 540 nm as determined in a Bausch & Lomb spectronic 20. Lysis of the bacteria is accompanied by a loss in absorbance at 540 nm. Nisin and lysozyme were added to these solutions to final concentrations of 100 IU/ml nisin and 10 μg/ml lysozyme and the solutions were placed in a 37° water bath whereupon the change in adsorption at 540 nm was monitored.

[3] = tested on: Listeria monocytogenes Scott A; assay: Disk inhibition of growth on BHI agar overlay plates; assay type: cell-based; settings: 10 μl on disks, overnight 37° C.; nisin below 50 IU/ml; lysozyme up to and including 125 μg/ml; blend 50 IU/ml nisin and 50 μg/ml lysozyme
Procedure: A culture of Listeria monocytogenes Scott A was grown overnight in Brain Heart Infusion broth (BHI, Difco Laboratories, Inc.). Overlay plates were prepared using 25 ml of BHI agar overlayed with 4 ml BHI agar containing 10 μl of the overnight culture. Sterile antibiotic sensitivity disks were blotted with 10 μl of nisin, lysozyme or nisin/lysozyme blends at various concentrations; placed on the surface of the overlay plates and incubated overnight at 37° C.

Staphlococcus aureus = assay: Minimal inhibitory concentration in BHI broth; assay type: cell-based; settings: lysozyme alone, 37° C.
Procedure: The synergy of nisin and lysozyme is not limited to the control of L. monocytogenes. The minimal inhibitory concentration (MIC) of nisin was lowered by the addition of lysozyme for the control of other gram positive bacteria. For example, a culture of Staphlococcus aureus was grown overnight in BHI broth and subsequently diluted into fresh BHI broth with various concentrations of nisin, lysozyme or a combination of nisin and lysozyme. […] Accordingly, one can use less nisin to provide an equivalent level of control by the addition of a synergistic amount of lysozyme.

L. monocytogenes = assay: Growth of L. monocytogenes in inoculated raw pork sausage (surface response model); assay type: cell-based, Listeria monocytogenes; settings: alone, 0-500 IU/gm nisin or 0-500 ppm lysozyme; 3 days at 5° C.
Procedure: L. monocytogenes can grow at 5° C. and poses a threat to some processed meats. Its control can include reduction in the rate of growth, bacteriostatic effects, and most desirably, bacteriocidal effects.
Raw sausage was inoculated with L. monocytogenes from a BHI overnight culture; various amounts of nisin and/or lysozyme were incorporated into the sausage. The treated sausage was held for either 3 or 21 days at 5° C. whereupon viable L. monocytogenes were enumerated. A surface response model was constructed over a range of 0-500 IU/gm nisin and 0-500 ppm lysozyme. The surface response model from the 3 day data are set out in the following FIG. 3. […] Similar synergies are seen at other levels of nisin and lysozyme.

Substance: subtilin (WKSESLCTPGCVTGALQTCFLQTLTCNCKISK; cysteine pairing not given here; also: lantibiotic thioether and dehydro residues, places not given here; UniProt P10946 25-56, looked up) [lantibiotic prepared by pure culture fermentation of Bacillus subtillus ATCC 6633, reference compound]
- Surviving Cells After 1 Hour at 25° C. (L. monocytogenes Scott A): 7.2 log10 colony forming units/ml
- log10 reduction (L. monocytogenes Scott A): 0.3 log10
- effect on the L. monocytogenes cells (L. monocytogenes Scott A): little effect

Substance: lysozyme
- Surviving Cells After 1 Hour at 37° C. ([1]; 10 mM citric acid buffer pH 3.5, nisin 1000 IU/ml and/or lysozyme 500 μg/ml, untreated 7.18): 7.08 log10 colony forming units/ml
- log10 reduction ([1]; 1 hour at 37° C., pH 3.5, nisin 1000 IU/ml and/or lysozyme 500 μg/ml): 0.10 log10
- effect against S. typhimurium ([1]; lysozyme 500 μg/ml alone, 1 hour at 37° C., pH 3.5): ineffective
- pH of maximum lysis [2]: 6.0-6.5 pH
- inhibition of bacterial growth (zone of inhibition around disks) [3]: nor was inhibition observed
- effect on subsequent growth of the bacteria (Staphlococcus aureus): did not affect
- Surviving Cells After 1 Hour at 25° C. (L. monocytogenes Scott A): 7.4 log10 colony forming units/ml
- log10 reduction (L. monocytogenes Scott A): 0.1 log10
- effect on the L. monocytogenes cells (L. monocytogenes Scott A): little effect
- control of L. monocytogenes in raw sausage (L. monocytogenes): ineffective
